Results published in paper PMC8221158, “Novel pyrrolizines bearing 3,4,5-trimethoxyphenyl moiety: design, synthesis, molecular docking, and biological evaluation as potential multi-target cytotoxic agents” (Journal of Enzyme Inhibition and Medicinal Chemistry, 2021).
Several values for one entry are separate records, joined by “and”; a condition that tells them apart may be missing. Identical values can stand only once.

Legend:
MCF-7 cells [1] = assay: Annexin V-FITC/PI apoptosis assay; format: cell-based, human; details: 0.1 μM, 24 h; for % Cell number, Early apoptosis / % Cell number, Late apoptosis / % Cell number, Live cells / % Cell number, Necrosis: n = 3
Description: The ability of compounds 16a,b,d to induce apoptotic changes in MCF-7 cells was determined by Annexin V-FITC/PI staining according to the previous report[13]^,[18]^,[19]. Additionally, the morphological changes in MCF-7 cells were examined by microscope. Following treatment with the test compounds at 0.1 µM for 24 h, the cells were stained with annexin V and PI. The determination of necrotic, early/late apoptotic changes were performed by flow cytometer (FC500, Beckman Coulter, Miami, FL).
The cytotoxic activity of our previously reported pyrrolizine-5-carboxamide 9a was mediated by the induction of apoptosis in MCF-7 cells[13]^,[19]. […] The cancer cells were treated with the test compounds (0.1 μM) for 24 h. The induction of apoptosis in MCF-7 cells by the selected compounds was investigated using annexin V fluorescein isothiocyanate (FITC)/propidium iodide (PI) staining assay. The assay procedures were the same as those applied in the previous report. Compound 16a increased apoptosis (early and late events) in MCF-7 cells to 19% compared to 1% in the control. Moreover, compound 16b caused a significant increase of MCF-7 apoptotic cells which was similar to the effect of compound 16a.

normal MRC-5 cells = assay: MTT assay, normal cells (cytotoxic selectivity); format: cell-based; details: Homo sapiens, MRC5, 72 h treatment, n = 3, read-out: IC50 (µM ± SD) MRC-5
Description: MCF-7 (human breast adenocarcinoma), A2780 (human ovarian cancer) and HCT116 (human colorectal carcinoma), and MRC-5 (normal foetal lung fibroblast) cell lines were bought from the ATCC and were cultured in flasks which were incubated at 37 °C in an atmosphere of 5% CO2, 95% air, and 100% relative humidity, to maintain continuous logarithmic growth. MCF-7, A2780, and HCT116 were maintained in RPMI-1640 media (100 U/mL penicillin, 100 µg/mL streptomycin, and 10% foetal bovine serum, Gibco, Carlsbad, CA). MRC-5 cells were maintained in EMEM (100 U/mL penicillin, 100 µg/mL streptomycin, and 10% foetal bovine serum, Gibco, Carlsbad, CA). Doxorubicin (5 μg/mL, for three months) added for RPMI-1640 media containing MCF7 cells was used to develop doxorubicin-resistant MCF7/ADR cells. All cancer and normal cell lines were cultured according to our previous report. Cells were used within 10–20 passages and were checked for mycoplasma every 6 months, by measuring the bioluminescence (Myco Alert sample detection kit; Lonza, Basel, Switzerland) using the multiplate reader (Synergy HT, BioTek, Winooski, VT).
The MTT assay was used to measure the cytotoxicity and growth inhibitory activities and cytotoxicity of the new compounds according to our previous report[13]^,[17]. Cells from flasks of 70–80% confluency were separately seeded in 96-well flat-bottom microculture plates (Nalgene-Nunc, Thermo Fisher Scientific, Roskilde, Denmark) at a density of 3 × 10^3 cells (MCF-7, A2780, and MRC-5), 1 × 10^4 cells (HCT116), to a volume of 180 μL/well of culture medium. A Neubauer haemocytometer was used for cell counting. Cells were incubated at 37 °C overnight to allow attachment to the wells. The final concentrations of each compound in wells were: 0–50 μM in 200 μL of media (DMSO 0.1%). Lapatinib (Cayman, Ann Arbor, MI) was used as a positive control at the same final concentrations. Medium only (20 μL) was added to each control well, and each concentration was tested in triplicates (n = 3). Following incubation for 72 h, 50 μL MTT was added into each well. Plates were incubated for 3 h, the supernatant was aspirated, and 100 μL of DMSO was added to each well. The optical density (OD) of the purple formazan is proportional to the number of viable cells. […] GraphPad Prism version 5.00 for Windows was used for analysis (La Jolla, CA). Cytotoxicity of the new compounds was calculated after treatment of cancer/normal cell lines for 72 h. The absorbance of the reduced MTT was determined using a microplate reader A570 nm.
Selectivity towards cancerous cells is one of the important issues which must be considered during the discovery and development of new anticancer agents. To assess the toxicity and selectivity of the new compounds (15a–e, 16a–e, 20, and 21), their growth inhibitory activities against normal human foetal lung fibroblast MRC-5 cells were evaluated using the MTT assay. […] The selectivity of the new compounds towards each of the three cancer cell lines was calculated by dividing their IC50 values against normal MRC-5 cells by their IC50 values against the corresponding cancer cell line (Table 3).

CDK-2 = molecular target: T1, CDK-2 (Homo sapiens, UniProt P24941); assay: CDK-2 inhibitory assay (ADP-Glo); format: biochemical; details: three determinations, read-out: IC50 (μM) ± SEM CDK-2
T1 construct: purchased Promega, Madison, WI
Description: The assay was done according to the manufacturer’s instructions and as described in the previous report[21].

EGFR = EGFR (Homo sapiens, UniProt P00533); assay: Kinase profiling test; format: biochemical; details: stated as inhibition, read-out: inhibition% against EGFR
EGFR, sequence (P00533 25-1210): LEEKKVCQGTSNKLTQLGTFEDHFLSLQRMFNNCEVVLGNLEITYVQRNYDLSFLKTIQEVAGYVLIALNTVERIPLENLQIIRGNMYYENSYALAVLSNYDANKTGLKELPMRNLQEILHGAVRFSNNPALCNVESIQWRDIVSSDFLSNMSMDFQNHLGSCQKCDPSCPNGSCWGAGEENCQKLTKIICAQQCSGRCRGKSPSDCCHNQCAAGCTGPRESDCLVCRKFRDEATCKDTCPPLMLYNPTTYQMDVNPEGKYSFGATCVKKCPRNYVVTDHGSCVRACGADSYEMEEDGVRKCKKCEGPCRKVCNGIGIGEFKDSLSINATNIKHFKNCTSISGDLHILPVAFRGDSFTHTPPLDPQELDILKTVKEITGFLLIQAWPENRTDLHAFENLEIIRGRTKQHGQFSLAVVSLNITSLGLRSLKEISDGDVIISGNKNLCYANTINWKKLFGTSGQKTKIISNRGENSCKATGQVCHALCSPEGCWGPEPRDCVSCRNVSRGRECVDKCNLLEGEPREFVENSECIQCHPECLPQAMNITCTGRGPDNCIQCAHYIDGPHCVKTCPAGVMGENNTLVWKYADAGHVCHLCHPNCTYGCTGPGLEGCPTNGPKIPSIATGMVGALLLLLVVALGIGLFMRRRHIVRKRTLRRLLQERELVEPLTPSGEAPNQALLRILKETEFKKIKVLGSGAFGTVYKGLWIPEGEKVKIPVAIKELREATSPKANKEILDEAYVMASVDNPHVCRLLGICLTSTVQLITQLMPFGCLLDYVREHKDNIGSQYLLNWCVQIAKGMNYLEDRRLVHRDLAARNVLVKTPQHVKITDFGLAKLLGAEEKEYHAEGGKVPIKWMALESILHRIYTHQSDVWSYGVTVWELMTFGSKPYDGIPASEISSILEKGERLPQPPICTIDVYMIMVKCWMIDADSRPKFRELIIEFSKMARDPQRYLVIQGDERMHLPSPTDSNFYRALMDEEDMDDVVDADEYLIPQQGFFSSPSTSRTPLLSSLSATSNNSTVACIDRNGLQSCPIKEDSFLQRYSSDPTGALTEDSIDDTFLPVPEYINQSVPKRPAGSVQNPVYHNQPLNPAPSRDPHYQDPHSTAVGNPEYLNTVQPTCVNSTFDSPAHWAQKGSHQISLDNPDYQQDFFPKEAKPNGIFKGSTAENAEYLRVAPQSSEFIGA
Description: The test was performed using the radiolabeled ATP determination method (KINEXUS Bioinformatics Corporation, Vancouver, Canada). The test was performed following the previous reports[13]^,[20].
The three compounds were tested at the same concentration (10 μM) against the same 20 kinases used in the previous report. The test was performed by KINEXUS Bioinformatics Corporation (Vancouver, Canada), following previous reports[13]^,[20].

MCF-7 cells [2] = assay: Cell cycle analysis (flow cytometry); format: cell-based, human; details: 0.1 μM, 24 h
Description: Cell cycle perturbations of MCF-7 cells treated with compounds 16a,b,d at 0.1 µM concentration for 24 h was determined using FC500 flow cytometer (FC500, Beckman Coulter, Miami, FL). The cell cycle analysis was performed according to our previous report.
Based on the results of the MTT assay (Table 1), compounds 16a,b,d were selected to investigate their effect on cell cycle phases of MCF-7 cells. The cancer cells were treated with the test compounds at 0.1 μM and vehicle (control) for 24 h according to the previous report. Cell cycle analysis was performed using FC500 flow cytometer (FC500, Beckman Coulter, Miami, FL). […] On the other hand, the S phase was the least affected with less than a twofold decrease.

[3] = test system: microtubule cytoskeleton of MCF-7 cells; assay: Immunofluorescence staining of microtubules; format: cell-based, human; details: 5 μM, 24 h

melting point	IC50 (CDK-2)	inhibition at 10 µM (EGFR)	SMILES	% Cell number, Early apoptosis (MCF-7 cells [1])	% Cell number, Late apoptosis (MCF-7 cells [1])	% Cell number, Live cells (MCF-7 cells [1])	% Cell number, Necrosis (MCF-7 cells [1])	apoptosis (early and late events) (MCF-7 cells [1]; control 1%)	IC50 (normal MRC-5 cells)	Cell cycle stage % G1 (MCF-7 cells [2])	Cell cycle stage % G2/M (MCF-7 cells [2])	Cell cycle stage % S (MCF-7 cells [2])	Cell cycle stage % preG1 (MCF-7 cells [2])	effect on cellular microtubules [3]
253 to 255 °C	0.086 ± 0.016 µM	30%	COc1cc(C(=O)Nc2c(C#N)c3n(c2C(=O)Nc2ccccc2)CCC3)cc(OC)c1OC [16a, 7-Cyano-N-phenyl-6-(3,4,5-trimethoxybenzamido)-2,3-dihydro-1H-pyrrolizine-5-carboxamide]	8.40 ± 0.87%	10.70 ± 1.06%	77.40 ± 1.39%	3.50% and 3.50 ± 0.37%	19%	0.155 ± 0.062 µM	10.69 ± 1.32%	37.38 ± 4.66%	25.93 ± 3.47%	26.92 ± 3.07%	–
265 to 267 °C	0.265 ± 0.021 µM	11%	COc1cc(C(=O)Nc2c(C#N)c3n(c2C(=O)Nc2ccc(C)cc2)CCC3)cc(OC)c1OC [16b, 7-Cyano-N-(p-tolyl)-6-(3,4,5-trimethoxybenzamido)-2,3-dihydro-1H-pyrrolizine-5-carboxamide]	6.22 ± 0.22%	13.01 ± 1.02%	75.00 ± 2.90%	7.11% and 7.11 ± 0.80%	–	5.85 ± 1.19 µM	13.19 ± 2.95%	35.35 ± 4.19%	28.46 ± 2.79%	22.43 ± 2.24%	shrank and partially disorganised microtubules which split partially into fragments
281 to 283 °C	0.113 ± 0.017 µM	–	COc1cc(C(=O)Nc2c(C#N)c3n(c2C(=O)Nc2ccc(Cl)cc2)CCC3)cc(OC)c1OC [16d, N-(4-Chlorophenyl)-7-cyano-6-(3,4,5-trimethoxybenzamido) -2,3-dihydro-1H-pyrrolizine-5-carboxamide]	7.50 ± 0.95%	19.94 ± 1.30%	71.99 ± 2.88%	2.51% and 2.51 ± 0.45%	–	8.1 ± 0.897 µM	5.46 ± 0.87%	45.62% and 45.62 ± 5.25%	24.92 ± 2.22%	27.56% and 27.56 ± 3.93%	–
